Measured values as given in US8466311B2, “Neuroprotective compositions and methods” (Sanford-Burnham Medical Research Institute, priority 2006, dated 2013).
“Also recorded” adds a separate entry of the source.

Key:
[1] = test system: immature cortical neurons; assay: Oxidative stress (glutamate or rotenone) in immature cortical cultures; assay type: cell-based, rat; settings: CA 3 μM
Source text: Primary cortical cultures and assays for two types of glutamate toxicity. Cerebrocortical neurons have been used as an in vitro system in order to investigate the cellular mechanism of neuronal death caused by glutamate. The level of expression of functional NMDA receptors is key for determining whether excitotoxicity or oxidative glutamate toxicity predominates. With increasing days in vitro (DIV), the expression level of these receptors in cortical cultures increases. […] In light of this background information, in the present study, we prepared cerebrocortical cultures from embryonic day 17 (E17) Sprague-Dawley rats and examined them at DIV2 as an experimental system for oxidative glutamate toxicity (Murphy et al., FASEB J. 4:1624-1633, 1990; Lee et al., J. Biol. Chem. 278:37948-37956, 2003). Rotenone, a complex I inhibitor of the mitochondrial electron-transport chain, also induces oxidative stress in immature cortical cultures (Murphy et al., FASEB J. 4:1624-1633, 1990; Lee et al., J. Biol. Chem. 278:37948-37956, 2003).
CA protects cortical neurons via activation of the Keap1/Nrf2 pathway. […] Glutamate (2 mM) and rotenone (300 nM) decreased the number of MAP2 and NeuN-positive cells to 30.8±2.5% and 25.8±1.9% of the control value, respectively. In contrast, CA (3 μM) increased cell survival in the face of these insults to 73.8±3.7% and 80.4±3.4%, respectively.

[2] = test system: HO-1 and γ-GCS; assay: Phase 2 enzyme induction in brain (RT-PCR); assay type: in vivo, mouse; settings: food containing 0.03% CA for a week
Method: RT-PCR. In order to examine phase 2 gene induction by CA in PC12h cells and brain lysates, RT-PCR of total RNA from cortical cultures was performed using the following primer pairs (Hosoya et al., J. Bioi. Chern. 29:27244-27250, 2005; Kobayashi et al., Mol. Cell. Biol. 26:221-229, 2006): CypA (89 bp), 5′-ACAGGTCCTGGCATCTTGTC-3′ (SEQ ID NO: 18)(sense) and 5′-[…] -3′ (SEQ ID NO: 19)(antisense); H0-1 (284 bp), 5′-CAGTCGCCTCCAGAGTTTCC -3′ (SEQ ID NO: 20)(sense) and 5′- TACAAGGAGGCCATCACCAGC-3′ (SEQ ID NO: 21)(antisense); GCL-M (280 bp), 5′- CTGCTAAACTGTTCATTGTAGG-3′ (SEQ ID NO: 22)(sense) and 5′- CTA TTG GGT TIT ACC TGT G-3′ (SEQ ID NO: 23)(antisense); GCL-C (213 bp), 5′- GTC TIC AGG TGA ACA TIC CAA GC-3′ (SEQ ID NO: 24)(sense) and 5′- TGTTCTTCAGGGGCTCCAGTC-3′ (SEQ 10 NO: 25)(antisense); and NQO1 (212 bp), 5′- GTG TAC AGC ATI GGC CAC AC-3′ (SEQ 10 NO: 26)(sense) and 5′AAATGATGGCCCACAGAAAG-3′ (SEQ ID NO: 27)(antisense).
Mice were allowed free access to food containing 0.03% CA for a week. Their brains were then removed, and extracts were prepared and measured for GSH and GSSG levels. Under these conditions, CA increased both total GSH+GSSG and the ratio of GSH/GSSG (FIG. 6). […] Therefore, we concluded that orally-administered CA could not only reach the brain but was also effective in activating potentially neuroprotective pathways.

[3] = test system: GSH; assay: Total GSH levels in cortical cultures; assay type: cell-based; settings: cortical cultures, control 46.8±4.5 nmol/mg protein
Method: Cell cultures, transfection, and glutathione (GSH) measurement. […] Transfection was performed with Lipofectamine 2000 (Invitrogen). In the reporter gene assays, firefly luciferase activity in cell lysates was measured with a luminometer (Promega). Total GSH (reduced and oxidized) was determined as described (Lee et al., Biochem. Biophys. Res. Commun. 280:286-292, 2001).
One caveat to the mechanism of NEPP and other electrophilic compounds acting at the level of Keap1 to induce HO-1 transcription is that NEPP could potentially react indiscriminately with other thiol-containing compounds in cells. To approach this question, we assessed cellular glutathione (GSH) levels to determine whether NEPP11 would affect this abundant antioxidant thiol. Nepp11 or N-ethylmaleimide (NEM) was added at t=0 and levels of total GSH were measured at the indicated times. GSH content of control cortical cultures (set arbitrarily at 100%) was 46.8±4.5 nmol/mg protein. […] In fact, this scenario seems likely, because the Keap1/Nrf2 pathway regulates the expression of γ-GCL in addition to HO-1 (Itoh et al., Mol. Cell. Biol. 24:36-45, 2004). […]
Transfections were performed with Lipofectamine 2000 (Invitrogen), and firefly luciferase activity in cell lysates was measured with a luminometer in the reporter gene assays (Promega).

[4] = test system: NFAT-binding site; assay: Enhancer element luciferase reporter p3xNFATluc; assay type: cell-based; settings: NEPP11 2 μM
Method: Because the E1 and E2 regions also contain other enhancer elements, we tested the effects of NEPP11 (2 μM) on the expression of luciferase activity derived from these elements, including the cAMP-responsive element (CRE; p3xCREluc), AP-1 binding site (p3xAP1luc), NF-κB binding site (p3xNF-κBluc), NFAT-binding site (p3xNFATluc), ETS-binding site (p3xETSluc), and MEF2-binding site (p3xMEF2luc).

SMILES | cell survival (MAP2 and NeuN-positive cells), % of the control value ([1]; glutamate 2 mM, glutamate alone 30.8±2.5%) | cell survival (MAP2 and NeuN-positive cells), % of the control value ([1]; rotenone 300 nM, rotenone alone 25.8±1.9%) | induction of phase 2 enzymes HO-1 and γ-GCS in brain [2] | total GSH levels [3] | activity of p3xNFATluc [4]
CC(C)c1cc2c(c(O)c1O)[C@@]1(C(=O)O)CCCC(C)(C)[C@@H]1CC2 [CA, carnosic acid] | 73.8±3.7% | 80.4±3.4% | significant induction | – | –
COC(=O)CCCCC/C=C1/C(=O)C=C[C@H]1CCCCCCc1ccc(C)cc1 [NEPP11] | – | – | – | did not deplete GSH levels; also recorded: transiently increased | slightly depressed
